Data published in patent US20010044445A1, “AZOLE INHIBITORS OF CYTOKINE PRODUCTION” (priority 1999, published 2001).

System: Human peripheral blood mononuclear cells
Experiment: Human Concanavalin-A Proliferation Assay (Con HU Assay)
Format: cell-based
Conditions: concanavalin-A stimulated human PBMC; for IC50: tritiated thymidine
Method: Human peripheral blood mononuclear cells were cultured in RPMI 1640 medium supplemented with 10 μg/ml gentamicin, 50 μM 2-mercaptoethanol, 1X MEM non-essential amino acids (Sigma Chemical Co., St. Louis, Mo.), 100 U/ml sodium penicillin G, 100 μg/ml streptomycin sulfate, 2 mM L-glutamine, 1 mM sodium pyruvate (Life Technologies, Grand Island, N.Y.) and 10% fetal bovine serum (Hyclone, Logan, Utah) at 37° C. with 5% CO2.
The procedure in Current Protocols in Immunology, Volume 1, Published by the Greene Publishing Associates and John Wiley & Sons, Inc, Edited by Richard Coico, 1994, hereby incorporated by reference, was followed. Briefly, 50 ml of blood from human volunteers was collected in heparinized syringes and mixed. Blood was diluted 1:1 in Dulbecco's phosphate buffered saline (D-PBS) (Life Technologies, Grand Island, N.Y.) and mixed. PBS-blood mixture was overlaid into 50 ml centrifuge tubes containing 15 ml Histopaque 1077 (Sigma Chemical Co., St. Louis, Mo.) and centrifuged at 500 X G for 30 minutes at room temperature. Cells at the interface from each Histopaque tube were removed and mixed with 5 ml of D-PBS. Each cell suspension was diluted to 50 ml with D-PBS, mixed and centrifuged at 400 X G for 15 minutes at room temperature. After most of the supernatant was removed, cells were resuspended to 40 ml with D-PBS per tube (2 tubes per donor). Cells were centrifuged at 400 X G for 10 minutes at room temperature. Pellets were resuspended in 10 ml of supplemented RPMI 1640 and cell number determined with a Coulter counter. Cells were diluted to a concentration of 0.5×10^6 cells per mL.
The procedure in Current Protocols in Immunology, Volume 1, Published by the Greene Publishing Associates and John Wiley & Sons, Inc, Edited by Richard Coico, 1994, hereby incorporated by reference, was followed. Briefly, test compounds were added to appropriate wells on 96-well tissue culture plates (Corning Glass Works, Corning, N.Y.) in 20 µl of supplemented RPMI 1640. Human peripheral blood mononuclear cells were added to each well in 100 μl volumes (final cell concentration equal to 50,000 cells per well). After 15 minutes, 100 μl of 5 μg/ml concanavalin-A (Sigma Chemical Co., St. Louis, Mo.) in supplemented RPMI 1640 was added to a final concentration of 2.5 μg/ml. Plates were incubated for 3 days at 37° C. with 5% CO2. On day 3, plates were pulsed with 0.5 μCi/well tritiated thymidine (New England Nuclear, Boston, Mass.). After 6 hours, plates were harvested on a Tomatec 96-well havester (Orange, Conn.). Glass filter mats were counted on a Matrix 9600 direct beta counter (Packard, Meriden, Conn.).

| Compound | IC50 | IC50 (Homo sapiens, PBMC) | other results |
| --- | --- | --- | --- |
| N-(4-(5-acetyl-3-(trifluoromethyl)-1H-pyrazol-1-yl)phenyl)-2-fluorobenzamide [Example 305] | 0.17 µM | – | – |
| CC1(C)C(C(=O)Nc2ccc(-n3nc(C(F)(F)F)cc3C(F)(F)F)cc2)C1(C)C [Example 2, N-[4-[3,5-bis(trifluoromethyl)-1H-pyrazol-1-yl]phenyl]-2.2.3.3-tetramethylcyclopropanecarboxamide] | – | – | % Inhibition of proliferation (at concentrations of 1,10, or 100 μm) (concentration 1 μm (in parentheses in the cell), 3 days): 1(1) % |
| O=C(Nc1ccc(-n2nc(C(F)(F)F)cc2C(F)(F)F)cc1)c1cccc2ccccc12 [Example 66, N-[4-[3,5-bis(trifluoromethyl)-1H-pyrazol-1-yl]phenyl]-1-naphthylenecarboxamide] | 1.04 µM | – | % Inhibition of proliferation (at concentrations of 1,10, or 100 μm) (concentration 100 μm (in parentheses in the cell), 3 days): 97(100) % |
| CN(C(=O)c1ccc([N+](=O)[O-])cc1Cl)c1ccc(-n2nc(C(F)(F)F)cc2C(F)(F)F)cc1 [Example 81, N-[4-[3,5-bis(trifluoromethyl)-1H-pyrazol-1-yl]phenyl]-2-chloro-4-nitro-N-methylbenzamide] | – | – | inhibition at 1 µM (Homo sapiens, PBMC, 72 h, concentration 1 μm (in parentheses in the cell), 3 days, read-out: % Inhibition of proliferation (at concentrations of 1,10, or 100 μm)): 30% |
| CCCC(=O)Nc1ccc(-n2nc(C(F)(F)F)cc2C(F)(F)F)cc1 [Example 175, N-[4-[3,5-Bis(trifluoromethyl)-1H-pyrazol-1-yl]phenyl]butanamide] | – | 0.562 µM | inhibition at 100 µM (Homo sapiens, PBMC, 72 h, concentration 100 μm (in parentheses in the cell), 3 days, read-out: % Inhibition of proliferation (at concentrations of 1,10, or 100 μm)): 100% |
| O=C(Nc1ccc(-n2nc(C(F)(F)F)cc2[N+](=O)[O-])cc1)c1ccccc1F [Example 326, 2-fluoro-N-(4-(5-nitro-3-(trifluoromethyl)-1H-pyrazol-1-yl)phenyl)benzamide] | – | 0.166 µM | – |
| Nc1cc(NC(=O)c2ccccc2F)ccc1-n1nc(C(F)(F)F)cc1C(F)(F)F [Example 298, N-{3-amino-4-[3,5-bis(trifluoromethyl)-1H-pyrazol-1-yl]phenyl}-2-fluorobenzamide] | – | 0.332 µM | – |
| O=C(Nc1ccc(-n2nc(C(F)(F)F)cc2C(F)(F)F)cc1)c1ccc(O)c(Br)c1 [Example 222] | 0.76 µM | – | % Inhibition of proliferation (at concentrations of 1,10, or 100 μm) (concentration 10 μm (in parentheses in the cell), 3 days): 100(10) % |
| NCc1ccc(C(=O)Nc2ccc(-n3nc(C(F)(F)F)cc3C(F)(F)F)cc2)c(Cl)c1 [Example 294, 4-(aminomethyl)-N-(4-(3,5-bis(trifluoromethyl)-1H-pyrazol-1-yl)phenyl)-2-chlorobenzamide] | – | 0.299 µM | – |
| Cc1nnsc1C(=O)Nc1ccc(-n2nc(-c3cccnc3)cc2[N+](=O)[O-])cc1 [Example 337, N-[4-[3-(3-pyridyl)-5-nitro-1H-pyrazol-1-yl]phenyl]-4-methylthiadiazol-5-yl-carboxamide] | 0.221 µM | – | – |
| O=C(Nc1ccc(-n2nc(-c3cccnc3)cc2[N+](=O)[O-])cc1)c1ccncc1F [Example 334, 3-fluoro-N-{4-[5-nitro-3-(3-pyridinyl)-1H-pyrazol-1-yl]phenyl}isonicotinamide] | – | 0.297 µM | – |
| O=C(Nc1ccc(-n2nc(-c3ccoc3)cc2OC(F)F)cc1)c1ccncc1F [Example 359, N-(4-(5-(difluoromethoxy)-3-(3-furyl)-1H-pyrazol-1-yl)phenyl)-3-fluoroisonicotinamide] | – | 0.261 µM | – |
| O=C(Nc1ccc(-n2nc(C(F)(F)F)cc2C(F)(F)F)cc1)c1cccc([N+](=O)[O-])c1Br [Example 205, N-[4-[3,5-bis(trifluoromethyl)-1H-pyrazol-1-yl]phenyl]-2-bromo-3-nitrobenzamide] | – | 0.196 µM | inhibition at 10 µM (Homo sapiens, PBMC, 72 h, concentration 10 μm (in parentheses in the cell), 3 days, read-out: % Inhibition of proliferation (at concentrations of 1,10, or 100 μm)): 100% |
| O=C(Nc1ccc(-n2nc(C(F)(F)F)cc2Cl)cc1)c1cccnc1F [Example 325, N-(4-(5-chloro-3-(trifluoromethyl)-1H-pyrazol-1-yl)phenyl)-2-fluoronicotinamide] | – | 0.172 µM | – |
| N#Cc1cc(-c2nccs2)nn1-c1ccc(NC(=O)c2ccncc2F)cc1 [Example 341, N-(4-(5-cyano-3-(1,3-thiazol-2-yl)-1H-pyrazol-1-yl)phenyl)-3-fluoroisonicotinamide] | 0.191 µM | – | – |
| Nc1cnccc1C(=O)Nc1ccc(-n2nc(C(F)(F)F)cc2C(F)(F)F)cc1 [Example 290, 3-amino-N-(4-(3,5-bis(trifluoromethyl)-1H-pyrazol-1-yl)phenyl)isonicotinamide] | – | 0.373 µM | – |
